Reference: patent publication EP0877740B1, “THIOL DERIVATIVES WITH METALLOPEPTIDASE INHIBITORY ACTIVITY” (ZAMBON GROUP S.p.A., priority 1995, dated 1997)
Where two headings read alike, the source gives them in different places.

How the values were obtained:
ACE = biological target: T1, ACE (Rattus norvegicus, UniProt P47820); test: Ex vivo ACE-inhibitory activity in lung homogenates of treated SHR (radiometric, [3H]Hyp-Gly-Gly); parameters: species or system spontaneously hypertensive rats (SHR); conditions: SHR lungs, oral 30 µmoles/kg
T1 construct: After the removal of the lungs from SHR, the lung tissue was homogenized; from tissue; host or cells: lung homogenate of spontaneously hypertensive rats (SHR)
T1 sequence (P47820 36-1313): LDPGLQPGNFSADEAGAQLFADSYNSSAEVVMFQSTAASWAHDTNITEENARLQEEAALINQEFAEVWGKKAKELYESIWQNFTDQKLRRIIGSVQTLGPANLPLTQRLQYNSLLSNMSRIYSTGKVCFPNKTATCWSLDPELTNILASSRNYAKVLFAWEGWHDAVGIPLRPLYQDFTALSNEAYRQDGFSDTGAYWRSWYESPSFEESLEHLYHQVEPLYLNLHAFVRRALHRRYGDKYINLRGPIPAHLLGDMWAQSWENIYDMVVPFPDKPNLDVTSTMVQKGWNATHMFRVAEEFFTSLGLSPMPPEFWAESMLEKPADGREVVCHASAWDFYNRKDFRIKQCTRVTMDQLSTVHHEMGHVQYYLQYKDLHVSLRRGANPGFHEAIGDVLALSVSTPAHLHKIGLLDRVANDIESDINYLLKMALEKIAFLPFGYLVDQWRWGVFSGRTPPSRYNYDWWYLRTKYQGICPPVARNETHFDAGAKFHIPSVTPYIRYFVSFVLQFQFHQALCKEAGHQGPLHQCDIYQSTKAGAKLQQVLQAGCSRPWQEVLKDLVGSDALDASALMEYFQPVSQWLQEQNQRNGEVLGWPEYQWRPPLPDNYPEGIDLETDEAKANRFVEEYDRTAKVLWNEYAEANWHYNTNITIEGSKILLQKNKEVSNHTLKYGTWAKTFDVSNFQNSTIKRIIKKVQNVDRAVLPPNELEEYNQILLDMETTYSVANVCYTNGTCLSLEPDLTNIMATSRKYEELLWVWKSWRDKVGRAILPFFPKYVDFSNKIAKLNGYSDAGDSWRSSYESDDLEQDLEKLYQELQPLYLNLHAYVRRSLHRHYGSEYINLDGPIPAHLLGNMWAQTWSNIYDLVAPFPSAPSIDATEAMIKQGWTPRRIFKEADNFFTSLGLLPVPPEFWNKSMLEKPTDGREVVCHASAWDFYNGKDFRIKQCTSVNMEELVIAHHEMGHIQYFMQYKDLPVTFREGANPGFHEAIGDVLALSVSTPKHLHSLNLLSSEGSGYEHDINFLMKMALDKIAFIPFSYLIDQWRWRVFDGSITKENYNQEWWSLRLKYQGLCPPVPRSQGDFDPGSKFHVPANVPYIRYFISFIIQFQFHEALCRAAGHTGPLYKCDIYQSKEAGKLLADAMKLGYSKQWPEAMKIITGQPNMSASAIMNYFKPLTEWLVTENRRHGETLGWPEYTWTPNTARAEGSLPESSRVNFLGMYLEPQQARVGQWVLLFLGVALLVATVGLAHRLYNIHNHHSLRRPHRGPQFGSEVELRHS
Protocol: (§1) The ex-vivo ACE/NEP-inhibitory activity, in particular, was determined by evaluating the enzymatic activity in tissue homogenates (lung and kidney for ACE and NEP activity, respectively) from spontaneously hypertensive rats (SHR) treated with the tested compounds by intravenous or oral route.
The ex vivo ACE-inhibitory activity was evaluated by using a radiometric assay method, as reported in the literature by J. W. Ryan et al. in Biochem. J. (1977), 167, 501-504.
The inhibitory activity of the compounds of formula I was evaluated in lungs of spontaneously hypertensive rats (SHR), 5 minutes after i.v. injection (0.6 and 21 µmoles/kg) and 30 minutes, 60 minutes and 4 hours after oral administration (30 µmoles/kg) of the tested compounds.
After the removal of the lungs from SHR, the lung tissue was homogenized and incubated for 2 hours at 37°C in the presence of [^3H]Hyp-Gly-Gly, as a substrate.
The reaction was stopped by adding hydrochloric acid.
The released radiolabelled hyppuric acid was extracted with ethyl acetate and counted by liquid scintillation spectrometry, according to conventional methods.
The ACE-inhibitory activity of the tested compounds was expressed as percentage of ACE-inhibition in SHR lungs.

NEP = biological target: T2, NEP (Rattus norvegicus, UniProt P07861); test: Ex vivo NEP-inhibitory activity in kidney homogenates of treated SHR (GAAP substrate); parameters: After the removal of the kidneys from SHR, the renal tissue was homogenized; from tissue; host or cells: kidney homogenate of spontaneously hypertensive rats (SHR); species or system spontaneously hypertensive rats (SHR); conditions: oral 30 µmoles/kg; for inhibition at 30 µmol/kg: rat, SHR kidneys
T2 sequence (P07861 1-750): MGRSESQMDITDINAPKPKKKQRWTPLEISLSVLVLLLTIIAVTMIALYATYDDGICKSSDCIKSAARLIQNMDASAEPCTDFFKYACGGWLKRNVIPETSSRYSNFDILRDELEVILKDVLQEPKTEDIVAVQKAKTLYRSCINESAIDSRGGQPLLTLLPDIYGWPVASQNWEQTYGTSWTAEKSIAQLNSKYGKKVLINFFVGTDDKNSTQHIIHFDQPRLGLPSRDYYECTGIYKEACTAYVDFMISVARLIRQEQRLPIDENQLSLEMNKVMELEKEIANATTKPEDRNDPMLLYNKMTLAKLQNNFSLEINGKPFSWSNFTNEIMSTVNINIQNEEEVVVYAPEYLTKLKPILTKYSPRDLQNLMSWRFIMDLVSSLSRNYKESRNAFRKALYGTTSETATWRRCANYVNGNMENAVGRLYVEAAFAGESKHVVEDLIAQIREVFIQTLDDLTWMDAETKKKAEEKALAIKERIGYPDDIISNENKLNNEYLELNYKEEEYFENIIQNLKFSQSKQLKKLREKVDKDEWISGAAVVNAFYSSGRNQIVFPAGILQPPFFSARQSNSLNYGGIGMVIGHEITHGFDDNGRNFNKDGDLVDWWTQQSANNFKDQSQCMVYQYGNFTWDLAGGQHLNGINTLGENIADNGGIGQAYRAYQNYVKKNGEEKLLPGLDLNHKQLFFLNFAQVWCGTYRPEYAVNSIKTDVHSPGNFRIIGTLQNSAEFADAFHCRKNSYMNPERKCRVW
Protocol: as §1
The ex vivo NEP-inhibitory activity was evaluated according to the procedure reported in the literature by M. Orlowsky et al., in Biochemistry 1981, 20, 4942-4950.
The inhibitory activity of the compounds of formula I was evaluated in kidneys of spontaneously hypertensive rats (SHR), 5 minutes after i.v. injection (0.6 and 21 µmoles/kg) and 30 minutes, 60 minutes and 4 hours after oral administration (30 µmoles/kg) of the tested compounds.
After the removal of the kidneys from SHR, the renal tissue was homogenized and incubated for 15 minutes at 37°C in the presence of Glutaryl-Ala-Ala-Phe-2-naphthylamide (GAAP), as a substrate, and aminopeptidase M at pH 7.6.
The reaction was stopped by adding an aqueous solution at 10% of trichloroacetic acid.
The released 2-naphthylamine was determined by adding fast garnet dye (2 ml).
Enzyme reaction rates were determined by measuring the increase in the optical density at 524 nm (OD524) with respect to a standard obtained with 2-naphthylamine complexed with fast garnet.
The NEP-inhibitory activity of the tested compounds was expressed as percentage of NEP-inhibition in SHR kidneys.

[1] = 30 minutes after administration, read-out: ACE-inhibition (lungs) 30 minutes
[2] = 4 hours after administration, read-out: ACE-inhibition (lungs) 4 hours
[3] = 30 minutes after administration, read-out: NEP-inhibition (kidneys) 30 minutes

Row | inhibition at 30 µmol/kg (ACE; [1]) [%] | inhibition at 30 µmol/kg (ACE; [2]) [%] | NEP-inhibition (kidneys) 30 minutes (NEP; 30 minutes after administration) | NEP-inhibition (kidneys) 4 hours (NEP; 4 hours after administration) | inhibition at 30 µmol/kg (NEP; [3]) [%] | inhibition at 30 µmol/kg (NEP; 4 hours after administration, read-out: NEP-inhibition (kidneys) 4 hours) [%] | Compound
1 | 25 | 10 | not active | not active | – | – | CC(CS)C(=O)N[C@@H](Cc1c[nH]c2ccccc12)C(=O)O (stereo partly drawn) [Compound R-4, N-(3-mercapto-2-methylpropanoyl)-L-triptophan]
2 | 25 | 20 | – | – | 10 | 5 | CC(CS)C(=O)N[C@@H](Cc1ccc(O)cc1)C(=O)O (stereo partly drawn) [Compound R-3, N-(3-mercapto-2-methylpropanoyl)-L-tyrosine]
3 | 25 | 20 | – | not active | 5 | – | O=C(N[C@@H](Cc1ccccc1)C(=O)O)C(CS)Cc1ccc2c(c1)OCO2 (stereo partly drawn) [Compound R-1, N-[3-mercapto-2-(3,4-methylenedioxyphenyl)methyl-propionyl]-(S)-phenylalanine]
4 | 30 | 25 | – | not active | 30 | – | O=C(N[C@@H](Cc1ccc(O)cc1)C(=O)O)C(CS)Cc1ccc2c(c1)OCO2 (stereo partly drawn) [Compound R-2, N-[3-mercapto-2-(3,4-methylenedioxyphenyl)methyl-propionyl)-(S)-tyrosine]
